Assay results reported in patent US20250312499A1, “KISSPEPTIN RECEPTOR (KISS1R) TARGETED THERAPEUTICS AND USES THEREOF” (priority 2024, published 2025).
Numbered stars: 1 amine (or outer) side, 2 acyl side, 3 side chain; on linkers, the order of the positions; unused ones are H or OH. Square brackets hold non-standard residues; d marks the D form. Peptide text beside a SMILES is read from it. * marks the point of attachment. DOTA = O=C(O)CN1CCN(CC(=O)O)CCN(CC(=O)*)CCN(CC(=O)O)CC1; Gly(N-(3-F-4-Me-benzyl)) = Cc1ccc(CNCC(=O)*)cc1F; Butanoyl(4-(4-I-phenyl)) = O=C(CCCc1ccc(I)cc1)*; Gly(N-3-F-4-Me-benzyl) = Cc1ccc(CNCC(=O)O)cc1F; Bpa = N[C@@H](Cc1ccc(C(=O)c2ccccc2)cc1)C(=O)O; Api(1-amidino) = N=C(N)N1CCC(N)(C(=O)O)CC1; Hydrocinnamoyl(4-Me) = Cc1ccc(CCC(=O)*)cc1; d(γGlu) = O=C(O)[C@@H](CCC(=O)[*:2])N[*:1]; Hydrocinnamoyl(4-I) = O=C(CCc1ccc(I)cc1)*; d2Nal = N[C@H](Cc1ccc2ccccc2c1)C(=O)O; Hyp = O=C(O)[C@@H]1C[C@@H](O)CN1; X1 = O=C(CN1CCC(N[*:1])CC1)[*:2]; 4Pal = N[C@@H](Cc1ccncc1)C(=O)O; d4Pal = N[C@H](Cc1ccncc1)C(=O)O; 2Thi = N[C@@H](Cc1cccs1)C(=O)O; Cha = N[C@@H](CC1CCCCC1)C(=O)O; 4Amb = NCc1ccc(C(=O)O)cc1; Octanoyl = CCCCCCCC(=O)*; Api = NC1(C(=O)O)CCNCC1; PEG2 = NCCOCCOCCC(=O)O; Ahx = NCCCCCC(=O)O; azaGly = NNC(=O)O; Sar = CNCC(=O)O

These compounds were tested against human kisspeptin receptor (Homo sapiens (Human), UniProt Q969F8) (assay: Human KISS1R binding assay (membrane competition binding)). Conditions: 90 min at room temperature; competition with 0.2 nM [125I]-metastin (45-54); Flp-In T-Rex 293 kisspeptin membranes; metal complexes nonradioactive Ga, In, Lu; read-out: hKiSSR Binding Ki (90 min).
Sequence of human kisspeptin receptor (Q969F8 whole entry): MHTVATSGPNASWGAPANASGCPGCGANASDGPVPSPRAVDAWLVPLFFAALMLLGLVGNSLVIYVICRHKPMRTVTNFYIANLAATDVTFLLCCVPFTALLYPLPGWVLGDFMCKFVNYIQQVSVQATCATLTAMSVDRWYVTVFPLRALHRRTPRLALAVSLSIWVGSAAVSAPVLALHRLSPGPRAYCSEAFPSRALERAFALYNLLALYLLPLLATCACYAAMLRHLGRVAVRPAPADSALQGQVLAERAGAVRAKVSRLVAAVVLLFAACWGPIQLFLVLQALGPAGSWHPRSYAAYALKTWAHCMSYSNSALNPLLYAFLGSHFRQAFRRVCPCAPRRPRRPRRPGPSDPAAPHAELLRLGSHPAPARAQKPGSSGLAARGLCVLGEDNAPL
Procedure, shortened: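 Membranes from tetracycline-induced (48 h) Flp-In T-Rex 293 cells expressing receptor, 5–10 μg, incubated 90 min at room temperature with 0.2 nM [125I]-metastin (45-54) and competitor (typically 0–10,000 nM) in Tris/Mg/Ca/EGTA/0.1% BSA, pH 7.4. Filtration, washing, counting; Ki by non-linear regression.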

| Ki | Structure (SMILES) |
| --- | --- |
| < 10 nM | CCCCCCCC(=O)N[C@H](Cc1ccc(O)cc1)C(=O)N[C@H](CCCCNC(=O)CN1CCN(CC(=O)O)CCN(CC(=O)O)CCN(CC(=O)O)CC1)C(=O)N[C@@H](CC(N)=O)C(=O)N[C@H](C(=O)N[C@@H](CC1CCCCC1)C(=O)NNC(=O)N[C@@H](CC(C)C)C(=O)NC1(C(=O)N[C@H](Cc2c[nH]c3ccccc23)C(N)=O)CCN(C(=O)CNC)CC1)[C@@H](C)O [Compound 355] (Octanoyl-[dY][dK](DOTA)NT[Cha][azaGly]L[Api](Sar)[dW]-NH2) |
| < 10 nM | CNCC(=O)N1CCC(NC(=O)[C@H](CC(C)C)NC(=O)NNC(=O)[C@H](Cc2ccccc2)NC(=O)[C@@H](NC(=O)[C@H](CC(N)=O)NC(=O)[C@H](CCCCNC(=O)CN2CCN(CC(=O)O)CCN(CC(=O)O)CCN(CC(=O)O)CC2)NC(=O)[C@@H](Cc2ccc(O)cc2)NC(=O)CCOCCOCCNC(=O)CNCc2ccc(C)c(F)c2)[C@@H](C)O)(C(=O)N[C@H](Cc2c[nH]c3ccccc23)C(N)=O)CC1 [Compound 359] (H-[Gly(N-3-F-4-Me-benzyl)][PEG2][dY]K(DOTA)NTF[azaGly]L[Api](Sar)[dW]-NH2) |
| 10 to 100 nM | Cc1ccc(CNCC(=O)N2CCC(NC(=O)[C@H](CC(C)C)NC(=O)NNC(=O)[C@H](Cc3ccncc3)NC(=O)[C@@H](NC(=O)[C@H](CC(N)=O)NC(=O)c3ccc(CNC(=O)CN4CCN(CC(=O)O)CCN(CC(=O)O)CCN(CC(=O)O)CC4)cc3)[C@@H](C)O)(C(=O)N[C@@H](Cc3ccncc3)C(N)=O)CC2)cc1F [Compound 259] ({DOTA-4Amb}-NT[4Pal][azaGly]L[Api](Gly(N-(3-F-4-Me-benzyl)))[4Pal]-NH2) |
| < 10 nM | Cc1ccc(CNCC(=O)N2CCC(NC(=O)[C@H](CC(C)C)NC(=O)NNC(=O)[C@H](CC3CCCCC3)NC(=O)[C@@H](NC(=O)[C@H](CC(N)=O)NC(=O)[C@@H](Cc3ccc4ccccc4c3)NC(=O)[C@@H](Cc3ccc(O)cc3)NC(=O)CN3CCN(CC(=O)O)CCN(CC(=O)O)CCN(CC(=O)O)CC3)[C@@H](C)O)(C(=O)N[C@@H](Cc3c[nH]c4ccccc34)C(N)=O)CC2)cc1F [Compound 318] ({DOTA}-[dY][d2Nal]NT[Cha][azaGly]L[Api](Gly(N-(3-F-4-Me-benzyl)))W-NH2) |
| < 10 nM | CNCC(=O)N1CCC(NC(=O)[C@H](CC(C)C)NC(=O)NNC(=O)[C@H](Cc2ccccc2)NC(=O)[C@@H](NC(=O)[C@H](CC(N)=O)NC(=O)[C@@H](Cc2ccc3ccccc3c2)NC(=O)[C@@H](Cc2ccc(O)cc2)NC(=O)CCCc2ccc(I)cc2)[C@@H](C)O)(C(=O)N[C@@H](Cc2ccc(O)cc2)C(N)=O)CC1 [Compound 399] ({Butanoyl(4-(4-I-phenyl))}-[dY][d2Nal]NTF[azaGly]L[Api](Sar)Y-NH2) |
| < 10 nM | Cc1ccc(CNCC(=O)N2CCC(NC(=O)[C@H](CC(C)C)NC(=O)NNC(=O)[C@H](Cc3ccccc3)NC(=O)[C@@H](NC(=O)[C@H](CC(N)=O)NC(=O)[C@@H](Cc3ccncc3)NC(=O)[C@@H](Cc3ccc(O)cc3)NC(=O)CN3CCN(CC(=O)O)CCN(CC(=O)O)CCN(CC(=O)O)CC3)[C@@H](C)O)(C(=O)N[C@@H](Cc3c[nH]c4ccccc34)C(N)=O)CC2)cc1F [Compound 23] ({DOTA}-[dY][d4Pal]NTF[azaGly]L[Api](Gly(N-(3-F-4-Me-benzyl)))W-NH2) |
| 10 to 100 nM | Cc1ccc(CNCC(=O)N2CCC(NC(=O)[C@H](CC(C)C)N[C@@H](CNC(=O)[C@H](Cc3ccccc3)NC(=O)CCCCCNC(=O)CN3CCN(CC(=O)O)CCN(CC(=O)O)CCN(CC(=O)O)CC3)C(F)(F)F)(C(=O)N[C@@H](Cc3c[nH]c4ccccc34)C(N)=O)CC2)cc1F [Compound 148] |
| < 10 nM | Cc1ccc(CNCC(=O)N2CCC(NC(=O)[C@H](CC(C)C)NC(=O)NNC(=O)[C@H](Cc3cccs3)NC(=O)[C@@H](NC(=O)[C@H](CC(N)=O)NC(=O)[C@H](CCC(=O)O)NC(=O)CN3CCC(NC(=O)CN4CCN(CC(=O)O)CCN(CC(=O)O)CCN(CC(=O)O)CC4)CC3)[C@@H](C)O)(C(=O)N[C@@H](Cc3c[nH]c4ccccc34)C(N)=O)CC2)cc1F [Compound 218] ({DOTA}-[X1]ENT[2Thi][azaGly]L[Api](Gly(N-(3-F-4-Me-benzyl)))W-NH2) |
| < 10 nM | Cc1ccc(CNCC(=O)N2CCC(NC(=O)[C@H](CC(C)C)NC(=O)NNC(=O)[C@H](Cc3ccccc3)NC(=O)CN3CCC(NC(=O)CN4CCN(CC(=O)O)CCN(CC(=O)O)CCN(CC(=O)O)CC4)CC3)(C(=O)N[C@@H](Cc3c[nH]c4ccccc34)C(N)=O)CC2)cc1F [Compound 28] ({DOTA}-[X1]F[azaGly]L[Api](Gly(N-(3-F-4-Me-benzyl)))W-NH2) |
| < 10 nM | Cc1ccc(CNCC(=O)N2CCC(NC(=O)[C@H](CC(C)C)NC(=O)NNC(=O)[C@H](Cc3ccccc3)NC(=O)[C@@H](NC(=O)[C@H](CC(N)=O)NC(=O)[C@H](Cc3ccc(C(=O)c4ccccc4)cc3)NC(=O)[C@@H](Cc3ccc(O)cc3)NC(=O)CCCCCNC(=O)CN3CCN(CC(=O)O)CCN(CC(=O)O)CCN(CC(=O)O)CC3)[C@@H](C)O)(C(=O)N[C@@H](Cc3c[nH]c4ccccc34)C(N)=O)CC2)cc1F [Compound 364] ({DOTA-Ahx}-[dY][Bpa]NTF[azaGly]L[Api](Gly(N-(3-F-4-Me-benzyl)))W-NH2) |
| < 10 nM | Cc1ccc(CNCC(=O)N2CCC(NC(=O)[C@H](CC(C)C)NC(=O)NNC(=O)[C@H](Cc3ccccc3)NC(=O)[C@@H](NC(=O)[C@H](CC(N)=O)NC(=O)CN3CCC(NC(=O)CN4CCN(CC(=O)O)CCN(CC(=O)O)CCN(CC(=O)O)CC4)CC3)[C@@H](C)O)(C(=O)N[C@@H](Cc3c[nH]c4ccccc34)C(N)=O)CC2)cc1F [Compound 158] ({DOTA}-[X1]NTF[azaGly]L[Api](Gly(N-(3-F-4-Me-benzyl)))W-NH2) |
| < 10 nM | Cc1ccc(CNCC(=O)N2CCC(NC(=O)[C@H](CC(C)C)NC(=O)NNC(=O)[C@H](Cc3ccccc3)NC(=O)CCCCCNC(=O)CN3CCN(CC(=O)O)CCN(CC(=O)O)CCN(CC(=O)O)CC3)(C(=O)N[C@@H](Cc3ccccc3)C(N)=O)CC2)cc1F [Compound 55] ({DOTA-Ahx}-F[azaGly]L[Api](Gly(N-(3-F-4-Me-benzyl)))F-NH2) |
| < 10 nM | CC(C)C[C@H](NC(=O)NNC(=O)[C@H](Cc1ccccc1)NC(=O)[C@@H](NC(=O)[C@H](CC(N)=O)NC(=O)[C@@H]1C[C@@H](O)CN1C(=O)[C@@H](Cc1ccc(O)cc1)NC(=O)CCCCCNC(=O)CN1CCN(CC(=O)O)CCN(CC(=O)O)CCN(CC(=O)O)CC1)[C@@H](C)O)C(=O)NC1(C(=O)N[C@@H](Cc2c[nH]c3ccccc23)C(N)=O)CCN(C(=N)N)CC1 [Compound 311] ({DOTA-Ahx}-[dY][Hyp]NTF[azaGly]L[Api(1-amidino)]W-NH2) |
| < 10 nM | CC(C)C[C@H](NC(=O)NNC(=O)[C@H](CC1CCCCC1)NC(=O)[C@@H](NC(=O)[C@H](CC(N)=O)NC(=O)[C@@H](Cc1ccc2ccccc2c1)NC(=O)[C@@H](Cc1ccc(O)cc1)NC(=O)CCCCCNC(=O)CN1CCN(CC(=O)O)CCN(CC(=O)O)CCN(CC(=O)O)CC1)[C@@H](C)O)C(=O)NC1(C(=O)N[C@@H](Cc2c[nH]c3ccccc23)C(N)=O)CCN(C(=N)N)CC1 [Compound 317] ({DOTA-Ahx}-[dY][d2Nal]NT[Cha][azaGly]L[Api(1-amidino)]W-NH2) |
| < 10 nM | CC(C)C[C@H](NC(=O)NNC(=O)[C@H](Cc1ccccc1)NC(=O)[C@@H](NC(=O)[C@H](CC(N)=O)NC(=O)[C@@H](Cc1ccc2ccccc2c1)NC(=O)[C@@H](Cc1ccc(O)cc1)NC(=O)[C@@H](CCCCNC(=O)CCCc1ccc(I)cc1)NC(=O)CCCCCNC(=O)CN1CCN(CC(=O)O)CCN(CC(=O)O)CCN(CC(=O)O)CC1)[C@@H](C)O)C(=O)NC1(C(=O)N[C@@H](Cc2ccccc2)C(N)=O)CCN(C(=N)N)CC1 [Compound 310] ({DOTA-Ahx}-[dK](Butanoyl(4-(4-I-phenyl)))[dY][d2Nal]NTF[azaGly]L[Api(1-amidino)]F-NH2) |
| 10 to 100 nM | Cc1ccc(CNCC(=O)N2CCC(NC(=O)[C@H](CC(C)C)NC(=O)CN(C)C(=O)[C@H](Cc3ccccc3)NC(=O)CCCCCNC(=O)CN3CCN(CC(=O)O)CCN(CC(=O)O)CCN(CC(=O)O)CC3)(C(=O)N[C@@H](Cc3c[nH]c4ccccc34)C(N)=O)CC2)cc1F [Compound 12] ({DOTA-Ahx}-F[Sar]L[Api](Gly(N-(3-F-4-Me-benzyl)))W-NH2) |
| < 10 nM | CNCC(=O)N1CCC(NC(=O)[C@H](CC(C)C)NC(=O)NNC(=O)[C@H](Cc2ccccc2)NC(=O)[C@@H](NC(=O)[C@H](CC(N)=O)NC(=O)[C@@H](Cc2ccc3ccccc3c2)NC(=O)[C@@H](Cc2ccc(O)cc2)NC(=O)CCCc2ccc(I)cc2)[C@@H](C)O)(C(=O)N[C@@H](Cc2ccccc2)C(N)=O)CC1 [Compound 398] ({Butanoyl(4-(4-I-phenyl))}-[dY][d2Nal]NTF[azaGly]L[Api](Sar)F-NH2) |
| < 10 nM | CC(C)C[C@H](NC(=O)NNC(=O)[C@H](Cc1ccccc1)NC(=O)[C@@H](NC(=O)[C@H](CC(N)=O)NC(=O)[C@H](CCCCNC(=O)CN1CCN(CC(=O)O)CCN(CC(=O)O)CCN(CC(=O)O)CC1)NC(=O)[C@@H](Cc1ccc(O)cc1)NC(=O)CC[C@@H](NC(=O)CCc1ccc(I)cc1)C(=O)O)[C@@H](C)O)C(=O)NC1(C(=O)N[C@@H](Cc2c[nH]c3ccccc23)C(N)=O)CCN(C(=N)N)CC1 [Compound 320] ({Hydrocinnamoyl(4-I)-d(γGlu)}-[dY]K(DOTA)NTF[azaGly]L[Api(1-amidino)]W-NH2) |
| < 10 nM | Cc1ccc(CCC(=O)NCCOCCOCCC(=O)N[C@H](Cc2ccc(O)cc2)C(=O)N[C@@H](CCCCNC(=O)CN2CCN(CC(=O)O)CCN(CC(=O)O)CCN(CC(=O)O)CC2)C(=O)N[C@@H](CC(N)=O)C(=O)N[C@H](C(=O)N[C@@H](Cc2ccccc2)C(=O)NNC(=O)N[C@@H](CC(C)C)C(=O)NC2(C(=O)N[C@@H](Cc3c[nH]c4ccccc34)C(N)=O)CCN(C(=N)N)CC2)[C@@H](C)O)cc1 [Compound 195] ({Hydrocinnamoyl(4-Me)-PEG2}-[dY]K(DOTA)NTF[azaGly]L[Api(1-amidino)]W-NH2) |

| Structure (SMILES) | Ki |
| --- | --- |
| Cc1ccc(CNCC(=O)N2CCC(NC(=O)c3ccc(-c4ccccc4)c(OCCNC(=O)[C@H](Cc4ccccc4)NC(=O)CN4CCC(NC(=O)CN5CCN(CC(=O)O)CCN(CC(=O)O)CCN(CC(=O)O)CC5)CC4)c3)(C(=O)N[C@@H](Cc3c[nH]c4ccccc34)C(N)=O)CC2)cc1F [Compound 214] | < 10 nM |
